From PubChem BioAssay (NCI)
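The compound was tested at five concentrations on cells cultured in 96-well plates, with a 48-hour exposure period. TGI denotes the concentration required for complete inhibition of growth.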

Tests used:
Experiment in all cases: inhibition of tumour cell growth, NCI panel, 48 h
[1] = system: DLD-1 colon
[2] = system: OVCAR-4 ovarian
[3] = system: NCI-H226 lung
[4] = system: SK-MEL-2 melanoma
[5] = system: OVCAR-8 ovarian
[6] = system: IGROV1 ovarian
[7] = system: HCT-15 colon
[8] = system: SN12C renal
[9] = system: HCT-116 colon
[10] = system: RXF 393 renal
[11] = system: UO-31 renal
[12] = system: HT29 colon
[13] = system: SNB-78 CNS
[14] = system: SF-268 CNS
[15] = system: A549 NSCLC
[16] = system: SK-OV-3 ovarian
[17] = system: KM20L2 colon
[18] = system: SF-295 CNS
[19] = system: LOX IMVI melanoma
[20] = system: MALME-3M melanoma
[21] = system: MOLT-4 leukemia
[22] = system: XF 498 CNS
[23] = system: CAKI-1 renal
[24] = system: SNB-19 CNS
[25] = system: OVCAR-5 ovarian
[26] = system: HOP-18 NSCLC
[27] = system: LXFL 529 NSCLC
[28] = system: SK-MEL-5 melanoma
[29] = system: COLO 205 colon
[30] = system: KM12 colon
[31] = system: SNB-75 CNS
[32] = system: SW-620 colon
[33] = system: EKVX NSCLC
[34] = system: ACHN renal
[35] = system: NCI-H460 lung
[36] = system: NCI-H23 lung
[37] = system: NCI-H522 lung
[38] = system: OVCAR-3 ovarian
[39] = system: SK-MEL-28 melanoma
[40] = system: U251 CNS
[41] = system: M14 melanoma
[42] = system: UACC-257 melanoma
[43] = system: RPMI-8226 leukemia
[44] = system: SF-539 CNS
[45] = system: CCRF-CEM leukemia
[46] = system: UACC-62 melanoma
[47] = system: HOP-92 NSCLC
[48] = system: HOP-62 NSCLC
[49] = system: K-562 leukemia
[50] = system: A498 renal
[51] = system: HCC-2998 colon
[52] = system: HL-60(TB) leukemia
[53] = system: DMS 114 small cell lung
[54] = system: SR leukemia
[55] = system: M19-MEL melanoma
[56] = system: 786-0 renal
[57] = system: HS 578T breast
[58] = system: MDA-MB-435
[59] = system: T-47D breast
[60] = system: BT-549 breast
[61] = system: MCF7 breast
[62] = system: NCI/ADR-RES ovarian
[63] = system: DU-145 prostate
[64] = system: PC-3 prostate
[65] = system: TK-10 renal
[66] = system: MDA-N
[67] = system: MDA-MB-231 breast

## NN1C(=O)C(CCO)S/C1=N/N=C1/SC(CCO)C(=O)N1N (configuration not stated)
[1]
  TGI: > 100 µM
[2]
  TGI: > 100 µM
[3]
  TGI: > 100 µM
[4]
  TGI: > 100 µM
[5]
  TGI: > 100 µM
[6]
  TGI: > 100 µM
[7]
  TGI: > 100 µM
[8]
  TGI: > 100 µM
[9]
  TGI: > 100 µM
[10]
  TGI: > 100 µM
[11]
  TGI: > 100 µM
[12]
  TGI: > 100 µM
[13]
  TGI: > 100 µM
[14]
  TGI: > 100 µM
[15]
  TGI: > 100 µM
[16]
  TGI: > 100 µM
[17]
  TGI: > 100 µM
[18]
  TGI: > 100 µM
[19]
  TGI: > 100 µM
[20]
  TGI: > 100 µM
[21]
  TGI: > 100 µM
[22]
  TGI: > 100 µM
[23]
  TGI: > 100 µM
[24]
  TGI: > 100 µM
[25]
  TGI: > 100 µM
[26]
  TGI: > 100 µM
[27]
  TGI: > 100 µM
[28]
  TGI: > 100 µM
[29]
  TGI: > 100 µM
[30]
  TGI: > 100 µM
[31]
  TGI: > 100 µM
[32]
  TGI: > 100 µM
[33]
  TGI: > 100 µM
[34]
  TGI: > 100 µM
[35]
  TGI: > 100 µM
[36]
  TGI: > 100 µM
[37]
  TGI: > 100 µM
[38]
  TGI: > 100 µM
[39]
  TGI: > 100 µM
[40]
  TGI: > 100 µM
[41]
  TGI: > 100 µM
[42]
  TGI: > 100 µM
[43]
  TGI: > 100 µM
[44]
  TGI: > 100 µM
[45]
  TGI: > 100 µM
[46]
  TGI: > 100 µM
[47]
  TGI: > 100 µM
[48]
  TGI: > 100 µM
[49]
  TGI: > 100 µM
[50]
  TGI: > 100 µM
[51]
  TGI: > 100 µM
[52]
  TGI: > 100 µM
[53]
  TGI: > 100 µM
[54]
  TGI: > 100 µM
[55]
  TGI: > 100 µM
[56]
  TGI: > 100 µM

## Cc1ccc2nc(C=Nc3ccc(Cl)cc3)cc(C)c2c1
[2]
  TGI: > 83.1 µM
[3]
  TGI: 72.7 µM
[4]
  TGI: > 100 µM
[5]
  TGI: 23.3 µM
[6]
  TGI: 31.3 µM
[7]
  TGI: 0.4 µM
[8]
  TGI: 29.4 µM
[9]
  TGI: 14.3 µM
[57]
  TGI: > 69.4 µM
[10]
  TGI: 62.3 µM
[11]
  TGI: 7.91 µM
[12]
  TGI: 37.8 µM
[14]
  TGI: 59.2 µM
[15]
  TGI: > 100 µM
[58]
  TGI: 24.1 µM
[16]
  TGI: > 100 µM
[18]
  TGI: 19.3 µM
[19]
  TGI: 20.1 µM
[20]
  TGI: > 64.9 µM
[21]
  TGI: > 53.6 µM
[59]
  TGI: 48.1 µM
[23]
  TGI: > 76.7 µM
[60]
  TGI: 30 µM
[24]
  TGI: > 100 µM
[25]
  TGI: > 100 µM
[61]
  TGI: 83.7 µM
[28]
  TGI: 25.2 µM
[29]
  TGI: 6.08 µM
[30]
  TGI: 24.7 µM
[31]
  TGI: 57.5 µM
[32]
  TGI: 27.2 µM
[33]
  TGI: > 100 µM
[34]
  TGI: > 96.4 µM
[35]
  TGI: > 70.6 µM
[36]
  TGI: 38 µM
[37]
  TGI: 26.6 µM
[38]
  TGI: 32.2 µM
[62]
  TGI: 32.1 µM
[39]
  TGI: 36.4 µM
[40]
  TGI: 32.9 µM
[41]
  TGI: 21.1 µM
[42]
  TGI: 36.5 µM
[63]
  TGI: > 100 µM
[43]
  TGI: > 51.3 µM
[44]
  TGI: 12.8 µM
[45]
  TGI: 13.1 µM
[46]
  TGI: 40 µM
[64]
  TGI: > 76.5 µM
[47]
  TGI: 81 µM
[65]
  TGI: 57 µM
[66]
  TGI: 25.2 µM
[48]
  TGI: 22.5 µM
[49]
  TGI: > 39.5 µM
[50]
  TGI: > 100 µM
[51]
  TGI: 6.62 µM
[52]
  TGI: 16.7 µM
[54]
  TGI: 11.6 µM
[67]
  TGI: 27.3 µM
[56]
  TGI: 35.3 µM

## CN(Cc1cc(Cl)cc(Cl)c1O)Cc1c(O)ccc2ccccc12
[2]
  TGI: 38.9 µM
[3]
  TGI: 37.7 µM
[4]
  TGI: 35.8 µM
[5]
  TGI: 39.2 µM
[6]
  TGI: 33.9 µM
[7]
  TGI: 38.9 µM
[8]
  TGI: 43.7 µM
[9]
  TGI: 58.7 µM
[57]
  TGI: 44.4 µM
[10]
  TGI: 33.6 µM
[11]
  TGI: 34.7 µM
[12]
  TGI: > 100 µM
[14]
  TGI: 28.2 µM
[15]
  TGI: 62.3 µM
[58]
  TGI: 41.4 µM
[16]
  TGI: 36.8 µM
[18]
  TGI: 36.1 µM
[19]
  TGI: 32.8 µM
[20]
  TGI: 28.9 µM
[21]
  TGI: 58.3 µM
[59]
  TGI: 43 µM
[23]
  TGI: 33.8 µM
[60]
  TGI: 32 µM
[24]
  TGI: 37.9 µM
[25]
  TGI: 52.5 µM
[61]
  TGI: 33.2 µM
[28]
  TGI: 32 µM
[29]
  TGI: 32 µM
[30]
  TGI: 42.8 µM
[31]
  TGI: 33.3 µM
[32]
  TGI: > 100 µM
[33]
  TGI: 46.4 µM
[34]
  TGI: 31 µM
[35]
  TGI: 35.1 µM
[36]
  TGI: 33.5 µM
[37]
  TGI: 29.6 µM
[38]
  TGI: 35.7 µM
[62]
  TGI: 42.5 µM
[39]
  TGI: 37.3 µM
[40]
  TGI: 30.4 µM
[41]
  TGI: 39.2 µM
[42]
  TGI: 34.6 µM
[63]
  TGI: 46.2 µM
[43]
  TGI: 73.1 µM
[44]
  TGI: 38.5 µM
[46]
  TGI: 29.3 µM
[64]
  TGI: 30.7 µM
[47]
  TGI: 36.5 µM
[65]
  TGI: 31.1 µM
[66]
  TGI: 66.1 µM
[48]
  TGI: 38.7 µM
[49]
  TGI: 61 µM
[50]
  TGI: 31 µM
[52]
  TGI: 57.4 µM
[54]
  TGI: 68.2 µM
[67]
  TGI: 32.2 µM
[56]
  TGI: 48.4 µM
